Like-named read-outs stand apart in the source and are kept apart here.
Key:
newborn rats = conditions: acute subcutaneous; cited from earlier work
rat = conditions: intravenous; cited from earlier work
[1] = for Cmax/D: GLSM, dose adjustment to 0.4 mg; for λz / Frel: mean
[2] = Safety of intranasal naloxone: adverse events, nasal irritation, vital signs, ECG (Study 2)
[3] = Safety of intranasal naloxone: nasal irritation, vital signs, ECG, clinical laboratory (Study 1); type: in vivo, human
Description: These vital signs and temperature were also measured at screening, clinic intake, one day after each dosing session and at follow-up. […] AEs were recorded from the start of study-drug administration until clinic discharge. […] Clinical laboratory measurements were done prior to the first drug administration and on the day of clinic release.
Statistical Analysis of Adverse Events: AEs were coded using the Medical Dictionary for Regulatory Activities (MedDRA), version 19. Preferred terms and are grouped by system, organ, class (SOC) designation. AEs are presented as a listing including the start date, stop date, severity, relationship, outcome, and duration.

mouse = conditions: intravenous; cited from earlier work
[4] = for Lambda z: harmonic mean; for Tmax: median; for λz: geometric mean (CV %)
clinical = conditions: human, plasma; for AUC(0-t): AUC0-t; for AUC(0-t) / AUC(0-inf) / Cmax: geometric mean (CV %); for AUC(0-inf): AUC0-∞; for Tmax: Table 13
[5] = im, 0.4 mg, One Injection 0.4 mg IM
[6] = other: intranasal (IN), 2 mg, One Spray 2% (w/v) IN
[7] = other: intranasal (IN), 4 mg, One Spray 4% (w/v) IN
[8] = other: intranasal, 2 mg, One Spray 2% (w/v) IN
[9] = other: intranasal, 4 mg, One Spray 4% (w/v) IN
[10] = other: intranasal, 4 mg, Two Sprays 2% (w/v) IN
[11] = other: intranasal, 8 mg, Two Sprays 4% (w/v) IN

Q: Which results are given for `C=CCN1CC[C@]23c4c5ccc(O)c4O[C@H]2C(=O)CC[C@@]3(O)[C@H]1C5` [naloxone, 17-allyl-4,5α-epoxy-3,14-dihydroxymorphinan-6-one]?
A: LD50 (95% CL) (newborn rats): 260 (228-296) mg/kg; LD50 (rat): 109 ± 4 mg/kg; Cmax/D ([1]; 0.4 mg IM): 0.755 ng/mL; λz ([1]; 0.4 mg IM): 0.593 h⁻¹; Frel ([1]; 2 mg IN vs IM): 0.571; Cmax/D ([1]; 2 mg IN): 0.510 ng/mL; λz ([1]; 2 mg IN): 0.588 h⁻¹; Frel ([1]; 4 mg IN vs IM): 0.475; Cmax/D ([1]; 4 mg IN): 0.466 ng/mL; λz ([1]; 4 mg IN): 8.0 h⁻¹; adverse events: Dizziness ([2]; 0.4 mg Intramuscular Dose): 1; adverse events: Headache ([2]; 0.4 mg Intramuscular Dose): 1; adverse events: Nausea ([2]; 0.4 mg Intramuscular Dose): 1; Events related to nasal irritation: Edema ([2]; 2 mg (2% w/v, one spray)): 2; Events related to nasal irritation: Erythema ([2]; 2 mg (2% w/v, one spray)): 4; Events related to nasal irritation: Other ([2]; 2 mg (2% w/v, one spray)): 1; Events related to nasal irritation: Total ([2]; 2 mg (2% w/v, one spray)): 7; adverse events: Nasal Pain ([2]; 2 mg (2% w/v, one spray)): 1; Events related to nasal irritation: Edema ([2]; 4 mg (2% w/v, two sprays)): 0; Events related to nasal irritation: Erythema ([2]; 4 mg (2% w/v, two sprays)): 1; Events related to nasal irritation: Other ([2]; 4 mg (2% w/v, two sprays)): 0; Events related to nasal irritation: Total ([2]; 4 mg (2% w/v, two sprays)): 1; Events related to nasal irritation: Edema ([2]; 4 mg (4% w/v, one spray)): 2; Events related to nasal irritation: Erythema ([2]; 4 mg (4% w/v, one spray)): 1; Events related to nasal irritation: Other ([2]; 4 mg (4% w/v, one spray)): 0; Events related to nasal irritation: Total ([2]; 4 mg (4% w/v, one spray)): 3; Events related to nasal irritation: Edema ([2]; 8 mg (4% w/v, two sprays)): 1; Events related to nasal irritation: Erythema ([2]; 8 mg (4% w/v, two sprays)): 0; Events related to nasal irritation: Other ([2]; 8 mg (4% w/v, two sprays)): 0; Events related to nasal irritation: Total ([2]; 8 mg (4% w/v, two sprays)): 1; adverse events: Headache ([2]; 8 mg (4% w/v, two sprays)): 1; relation of nasal irritation to dose ([2]; IN 2 to 8 mg): did not appear to be positively related to the dose; QTcF prolongation ([2]; Study 2): no evidence of QTcF prolongation; vital signs, ECG, and clinical laboratory parameters ([2]; after naloxone administration, Study 2): did not reveal any clinically noteworthy changes; pharyngeal pain ([3]; 2 mg IN dose): One subject experienced mild transient (over 3 min) pharyngeal pain; nasal irritation (erythema, edema, erosion) in the nasal cavity ([3]; IN 2 and 4 mg to both nostrils): No erythema, edema, erosion, or other sign was observed; QTcF prolongation ([3]; Study 1): no evidence of QTcF prolongation; vital signs, ECG, and clinical laboratory parameters ([3]; after naloxone administration, Study 1): did not reveal any clinically noteworthy changes; LD50 (mouse): 150 ± 5 mg/kg; Lambda z ([4]; 0.4 mg IM, Female): 0.6140 h⁻¹; Lambda z ([4]; 0.4 mg IM, Male): 0.5152 h⁻¹; Tmax ([4]; 0.4 mg IM, Male): 30 min; Lambda z ([4]; 0.4 mg IM): 0.5534 h⁻¹; Lambda z ([4]; One 2% (w/v) IN, Female): 0.3978 h⁻¹; Lambda z ([4]; One 2% (w/v) IN, Male): 0.3492 h⁻¹; Lambda z ([4]; One 4% (w/v) IN, Female): 0.2946 h⁻¹; Tmax ([4]; One 4% (w/v) IN, Female): 30 min; Lambda z ([4]; One 4% (w/v) IN, Male): 0.3386 h⁻¹; Tmax ([4]; One 4% (w/v) IN, Male): 30 min; λz ([4]; One Injection 0.4 mg IM): 0.557 (25.9) 1/h; λz ([4]; One Spray 2% (w/v) IN): 0.382 (34.9) 1/h; λz ([4]; One Spray 4% (w/v) IN): 0.334 (29.5) 1/h; Lambda z ([4]; Two 2% (w/v) IN, Female): 0.2796 h⁻¹; Lambda z ([4]; Two 2% (w/v) IN, Male): 0.3122 h⁻¹; Lambda z ([4]; Two 4% (w/v) IN, Female): 0.2994 h⁻¹; Lambda z ([4]; Two 4% (w/v) IN, Male): 0.3407 h⁻¹; λz ([4]; Two Sprays 2% (w/v) IN): 0.310 (34.5) 1/h; λz ([4]; Two Sprays 4% (w/v) IN): 0.330 (32.4) 1/h; Lambda z ([4]; one spray 2 mg 2% (w/v) IN): 0.3685 h⁻¹; Lambda z ([4]; two sprays 4 mg 2% (w/v) IN): 0.2973 h⁻¹; Lambda z ([4]; two sprays 8 mg 4% (w/v) IN): 0.3217 h⁻¹; AUC(0-t) (clinical; [5]): 1.72 ng·h/mL; AUC(0-inf) (clinical; [5]): 1.76 ng·h/mL; Cmax (clinical; [5]): 0.877 ng/mL; Tmax (clinical; [5]): 22.8 min; AUC(0-t) (clinical; [6]): 4.51 ng·h/mL; AUC(0-inf) (clinical; [6]): 4.56 ng·h/mL; AUC(0-t) (clinical; [7]): 7.87 ng·h/mL; AUC(0-inf) (clinical; [7]): 7.95 ng·h/mL; AUC(0-inf) (clinical; other: intranasal (IN), 8 mg, Two Sprays 4% (w/v) IN): 15.5 ng·h/mL; Cmax (clinical; [8]): 2.92 ng/mL; Tmax (clinical; [8]): 19.8 min; Cmax (clinical; [9]): 4.83 ng/mL; Cmax (clinical; [10]): 6.2 ng/mL; Tmax (clinical; [9]): 30 min; Tmax (clinical; [10]): 19.8 min; Cmax (clinical; [11]): 9.7 ng/mL; Tmax (clinical; [11]): 19.8 min

From patent US10085937B2, “Nasal drug products and methods of their use” (Adapt Pharma Limited, priority 2014, dated 2018)
